This note sets out measurements from patent US20240067613A1, “NOVEL QUINAZOLINE DERIVATIVES AS SOS1 INHIBITORS AND USE THEREOF” (HANMI PHARMACEUTICAL CO., LTD., priority 2020, published 2024).

Each structure is given as a SMILES string.

For this test, the target named is T1, SOS1 binding to KRAS G12C (Homo sapiens, UniProt Q07889).
T1 construct: consisting of amino acid residues 564 to 1049 which are the catalytic domain; purchased Reaction Biology Corporation MSC-11-502 (SOS1-Strep); MSC-11-538 (KRAS G12C)
T1 sequence (Q07889 564-1049): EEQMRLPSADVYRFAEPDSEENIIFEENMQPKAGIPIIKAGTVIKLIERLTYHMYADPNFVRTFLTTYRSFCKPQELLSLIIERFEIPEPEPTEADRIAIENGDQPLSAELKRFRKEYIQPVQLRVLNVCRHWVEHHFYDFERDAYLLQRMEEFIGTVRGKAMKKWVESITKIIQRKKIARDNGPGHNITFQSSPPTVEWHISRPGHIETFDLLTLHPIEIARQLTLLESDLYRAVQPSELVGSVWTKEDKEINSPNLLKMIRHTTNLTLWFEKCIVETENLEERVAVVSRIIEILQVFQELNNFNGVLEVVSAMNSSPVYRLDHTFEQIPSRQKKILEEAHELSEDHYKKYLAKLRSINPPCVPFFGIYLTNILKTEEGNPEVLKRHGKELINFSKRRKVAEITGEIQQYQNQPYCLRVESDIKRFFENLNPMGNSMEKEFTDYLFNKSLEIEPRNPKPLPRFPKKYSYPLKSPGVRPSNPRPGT
Put plainly: SOS1 GTP substitution inhibition test (HTRF/TR-FRET, KRAS G12C-SOS1 binding inhibitory ability). The test is classed as biochemical. To be noted: HTRF, GST-KRAS G12C (2-169), SOS1-Strep (564-1049), 1.6, 8, 40, 200, 1,000 nM. As to the method: In order to determine whether the substitution function of SOS1 binding to KRAS G12C is inhibited by the above-described example compounds, a homogeneous time-resolved fluorescence (HTRF) test was performed using G12C(#MSC-11-538) and SOS1-Strep(#MSC-11-502) purchased from Reaction Biology Corporation (MA, USA). The activity of SOS1 enzyme was determined by measuring the amount of GTP bound to KRAS G12C proteins, using the principle of time-resolved fluorescence energy transfer (TR-FRET). Based on the principle that terbium bound to the GST-binding antibody of the GST-KRAS G12C protein acts as a donor of fluorescence resonance energy transfer (FRET), and the GTP bound to the KRAS G12C protein is labeled with the fluorescent agent DY-647P1 and acts as a receiver, when the more GTP is bound to the KRAS G12C protein by the substitution reaction of SOS1 according to this test, the higher HTRF or FRET signal is measured. To summarize, glutathione S-transferase (GST)-tagged KRAS G12C proteins (consisting of amino acid residues 2 to 169) required for the reaction, streptavidin-tagged SOS1 proteins (consisting of amino acid residues 564 to 1049 which are the catalytic domain), anti-GST antibody (#61[…]) purchased from CISBIO corporation, nucleic acid (#NU-820-647P1) purchased from Jena Bioscience GmbH were mixed in a buffer solution formed from 10 mM HEPES pH7.4, 150 mM NaCl, 5 mM MgCl2, and 1 mM dithiothreitol (DTT), and the mixture was added to a 384-well plate and reacted at room temperature. Next, FRET signals were measured with a Perkin Elmer Envision microplate reader. In this case, an excitation signal (excitation) was measured at 320 nm, and an emission signal (emission) was measured at 615/665 nm. The fluorescence measurement value when the SOS1 protein was not included was calculated as a background signal value, and the background signal value was subtracted from all of the measured HTRF values. The fluorescence measurement value when the synthesized compound was not included was measured as a control value, and this value was selected as a reference point of 100%. For each of the example compounds, fluorescence was measured at concentrations of 1.6, 8, 40, 200, and 1,000 nM (5 points, 5-fold), and the 50% activity inhibition value (IC50) of each of the compounds was calculated using GraphPad Prism. When the IC50 value was 50 nM or less, the inhibitory ability was denoted as +++. When the IC50 value was more than 50 nM and 100 nM or less, the inhibitory ability was denoted as ++. When the IC50 value was more than 100 nM, the inhibitory ability was denoted as +.

Molecule `COc1cc2c(N[C@H](C)c3cc(N)cc(C(F)F)c3F)nc(C)nc2cc1C(=O)N1CCOCC1` [Example 26, (R)-(4-((1-(5-amino-3-(difluoromethyl)-2-fluorophenyl)ethyl)amino)-6-methoxy 2-methylquinazolin-7-yl)(morpholino)methanone] had an IC50 of at most 50 nM.

`Cc1nc(N[C@H](C)c2cc(N)cc(C(F)(F)F)c2)c2cc(O[C@H]3CCOC3)c(C(=O)N3CCOCC3)cc2n1` [Example 27, (4-(((R)-1-(3-amino-5-(trifluoromethyl)phenyl)ethyl)amino)-2-methyl-6-(((S)-tetrahydrofuran-3-yl)oxy)quinazolin-7-yl)(morpholino)methanone]: the IC50 lay in the range of 50 to 100 nM.

On to `COc1cc2c(N[C@H](C)c3cc(N)cc(-c4ccoc4)c3)nc(C)nc2cc1C(=O)N1CCOCC1` [Example 28, (R)-(4-((1-(3-amino-5-(furan-3-yl)phenyl)ethyl)amino)-6-methoxy-2-methylquinazolin-7-yl)(morpholino)methanone], for which the IC50 was at most 50 nM.

In the case of `COc1cc2c(N[C@H](C)c3cc(N)cc(C(F)F)c3)nc(C)nc2cc1C(=O)N1CCOCC1` [Example 29, (R)-(4-((1-(3-amino-5-(difluoromethyl)phenyl)ethyl)amino)-6-methoxy-2-methylquinazolin-7-yl)(morpholino)methanone], the concentration for half-maximal inhibition (IC50) was at most 50 nM.

The molecule `COc1cc2c(N[C@H](C)c3cc(N)cc(-c4cncs4)c3)nc(C)nc2cc1C(=O)N1CCOCC1` [Example 30, (R)-(4-((1-(3-amino-5-(thiazole-5-yl)phenyl)ethyl)amino)-6-methoxy-2-methylquinazolin-7-yl)(morpholino)methanone] gave an IC50 of 50 to 100 nM.

`CCNc1cc([C@@H](C)Nc2nc(C)nc3cc(C(=O)N4CCOCC4)c(OC)cc23)cc(C(F)(F)F)c1` [Example 31, (R)-(4-((1-(3-(ethylamino)-5-(trifluoromethyl)phenyl)ethyl)amino)-6-methoxy-2-methylquinazolin-7-yl)(morpholino)methanone] displayed a half-maximal inhibitory concentration (IC50) of 50 to 100 nM.

`COCCOc1cc2c(N[C@H](C)c3cc(N)cc(C(F)(F)F)c3)nc(C)nc2cc1C(=O)N1CCOCC1` [Example 32, methyl (R)-(4-((1-(3-amino-5-(trifluoromethyl)phenyl)ethyl)amino)-6-(2-methoxyethoxy)-2-methylquinazolin-7-yl)(morpholino)methanone]: the IC50 was over 100 nM.

As for `COc1cc2c(N[C@H](C)c3cc(N)cc(C(F)(F)F)c3)nc(CF)nc2cc1C(=O)N1CCOCC1` [Example 33, (R)-(4-((1-(3-amino-5-(trifluoromethyl)phenyl)ethyl)amino)-2-(fluoromethyl)-6-methoxyquinazolin-7-yl)(morpholino)methanone], the 50% inhibitory concentration (IC50) was over 100 nM.

As for `COc1cc2c(N[C@H](C)c3cc(N)cc(C(F)(F)F)c3)nc(C)nc2cc1CN1CCOCC1` [Example 34, (R)-N-(1-(3-amino-5-(trifluoromethyl)phenyl)ethyl)-6-methoxy-2-methyl-7-(morpholinomethyl)quinazoline-4-amine], the IC50 is over 100 nM.

Molecule `COc1cc2c(N[C@H](C)c3cc(N)cc(C(F)F)c3F)nc(C)nc2cc1CN1CCOCC1` [Example 35, (R)-N-(1-(5-amino-3-(difluoromethyl)-2-fluorophenyl)ethyl)-6-methoxy-2-methyl-7-(morpholinomethyl)quinazoline-4-amine] showed an IC50 of at most 50 nM.

Consider `COc1cc2c(N[C@H](C)c3cc(N)cc(C(F)(F)F)c3)nc(C)nc2cc1OC1CCOCC1` [Example 36], for which the IC50 was 50 to 100 nM.

Consider `COc1cc2c(N[C@H](C)c3cc(N)cc(C(F)F)c3F)nc(C)nc2cc1OC1CCOCC1` [Example 37, (R)-N-(1-(5-amino-3-(difluoromethyl)-2-fluorophenyl)ethyl)-6-methoxy-2-methyl-7-((tetrahydro-2H-pyran-4-yl)oxy)quinazoline-4-amine], for which the IC50 is over 100 nM.

Consider `COc1cc2c(N[C@H](C)c3cc(N)cc(C(F)(F)F)c3)nc(C)nc2cc1OCC1CCOCC1` [Example 38, (R)-N-(1-(3-amino-5-(trifluoromethyl)phenyl)ethyl)-6-methoxy-2-methyl-7-((tetrahydro-2H-pyran-4-yl)methoxy)quinazoline-4-amine], for which the IC50 is over 100 nM.

On to `COc1cc2c(N[C@H](C)c3cc(N)cc(C(F)(F)F)c3)nc(C)nc2cc1OCC1COC1` [Example 39, (R)-N-(1-(3-amino-5-(trifluoromethyl)phenyl)ethyl)-6-methoxy-2-methyl-7-(oxetane-3-ylmethoxy)quinazoline-4-amine], for which the IC50 is over 100 nM.

`CNc1cc2c(N[C@H](C)c3cc(N)cc(C(F)(F)F)c3)nc(C)nc2cc1C(=O)N1CCOCC1` [Example 40, (R)-(4-((1-(3-amino-5-(trifluoromethyl)phenyl)ethyl)amino)-2-methyl-6-(methylamino)quinazoline-7-yl)(morpholino)methanone] registered a half-maximal inhibitory concentration (IC50) of at most 50 nM.

`Cc1nc(N[C@H](C)c2cc(N)cc(C(F)(F)F)c2)c2cc(N(C)C)c(C(=O)N3CCOCC3)cc2n1` [Example 41, (R)-(4-((1-(3-amino-5-(trifluoromethyl)phenyl)ethyl)amino)-6-(dimethylamino)-2-methylquinazoline-7-yl)(morpholino)methanone] yielded a half-inhibitory concentration (IC50) of 50 to 100 nM.

`Cc1nc(N[C@H](C)c2cc(N)cc(C(F)(F)F)c2)c2cc(N3CCCC3)c(C(=O)N3CCOCC3)cc2n1` [Example 42, (R)-(4-((1-(3-amino-5-(trifluoromethyl)phenyl)ethyl)amino)-2-methyl-6-(pyrrolidin-1-yl)quinazoline-7-yl)(morpholino)methanone] returned an IC50 of over 100 nM.

In turn, `CNc1cc2c(N[C@H](C)c3cc(N)cc(C(F)F)c3F)nc(C)nc2cc1C(=O)N1CCOCC1` [Example 43, (R)-(4-((1-(5-amino-3-(difluoromethyl)-2-fluorophenyl)ethyl)amino)-2-methyl-6-(methylamino)quinazoline-7-yl)(morpholino)methanone] gave an IC50 of at most 50 nM.

As for `COCCNc1cc2c(N[C@H](C)c3cc(N)cc(C(F)(F)F)c3)nc(C)nc2cc1C(=O)N1CCOCC1` [Example 44, (R)-(4-((1-(3-amino-5-(trifluoromethyl)phenyl)ethyl)amino)-6-((2-methoxyethyl)amino)-2-methylquinazoline-7-yl)(morpholino)methanone], the half-inhibitory concentration (IC50) fell in the range of 50 to 100 nM.

As for `Cc1nc(N[C@H](C)c2cc(N)cc(C(F)(F)F)c2)c2cc(NC3CCCC3)c(C(=O)N3CCOCC3)cc2n1` [Example 45, (R)-(4-((1-(3-amino-5-(trifluoromethyl)phenyl)ethyl)amino)-6-(cyclopentylamino)-2-methylquinazoline-7-yl)(morpholino)methanone], the IC50 is 50 to 100 nM.

Take `CCNc1cc2c(N[C@H](C)c3cc(N)cc(C(F)(F)F)c3)nc(C)nc2cc1C(=O)N1CCOCC1` [Example 46, (R)-(4-((1-(3-amino-5-(trifluoromethyl)phenyl)ethyl)amino)-6-(ethylamino)-2-methylquinazoline-7-yl)(morpholino)methanone]: the IC50 lay in the range of 50 to 100 nM.

`Cc1nc(N[C@H](C)c2cc(N)cc(C(F)(F)F)c2)c2cc(NC(C)C)c(C(=O)N3CCOCC3)cc2n1` [Example 47, (R)-(4-((1-(3-amino-5-(trifluoromethyl)phenyl)ethyl)amino)-6-(isopropylamino)-2-methylquinazoline-7-yl)(morpholino)methanone] displayed an IC50 of 50 to 100 nM.
